Source: US20150238444A1, “CHLORHEXIDINE GLUCONATE SOLUBILIZED IN A HYDROPHOBIC MONOACYLGLYCERIDE” (3M INNOVATIVE PROPERTIES COMPANY, priority 2012, published 2015)

Assay: Screening of CHG solubility in hydrophobic vehicles after vacuum-stripping water
Format: physicochemical
Procedure: General Method for Vacuum-Stripping Water from CHG Solutions. A 25 g sample of CHG/water solution (20 wt. CHG) was added to 45 g of the hydrophobic monoacylglyceride of interest in a 200 mL round bottom flask. The flask was put in a 60° C. oil bath and stirred with a magnetic stir bar. Vacuum (less than 3.3 kilopascal (25 Torr)) was pulled until bubbling stopped and the weight had closely approached the theoretical value of 50 grams—usually 30-90 minutes. […] In those cases, after nearly all the water was removed, additional hydrophobic monoacylglyceride was added to bring the final weight to 50 grams.
Screening tests were conducted to determine the solubility of CHG in a variety of hydrophobic vehicles. Samples were prepared by mixing CHG (20 wt. % solution in water, obtained from Xttrium Laboratories Inc., Chicago, Ill.) with the vehicle and vacuum stripping in accordance with the General Method for Vacuum-Stripping Water from CHG Solutions. The resulting concentration of CHG and residual water were determined. Also, the final state of the solution was qualitatively evaluated to determine whether the mixture was transparent and apparently homogenous, or clearly inhomogeneous.

[1] = after vacuum stripping of water from CHG/vehicle mixture

| Compound | Experimental Solubility with CHG | Final State (CHG 10 wt. %, 23-60° C.) | Water wt. % (residual water) [1] | also measured |
| --- | --- | --- | --- | --- |
| CC(C)CCCCCCCCCCCCCCC(=O)OCC(O)CO (stereo not drawn) [Glyceryl monoisostearate] | Yes | Homogeneous | – | Final State (CHG 16 wt. %, 23-60° C.): Homogeneous; Final State (CHG 20 wt. %, 60° C.): Homogeneous |
| CCCCCCCC/C=C\CCCCCCCC(=O)OCC(O)CO (stereo not drawn) [Glyceryl monooleate] | Yes | Homogeneous | 0.3% wt. % | – |
| Polyglycerol-2-Triisostearate | No | Inhomogeneous | – | CHG wt. % (resulting concentration of CHG in the vehicle) [1]: 10% wt. % |

More lines, main results first:

| Experimental Solubility with CHG | Final State (CHG 10 wt. %, 23-60° C.) | Water wt. % (residual water) [1] | Compound | also measured |
| --- | --- | --- | --- | --- |
| Yes | – | – | CCCCCCCC(=O)OCC(O)CO (stereo not drawn) [Glyceryl monocaprylate] | Final State (CHG 20 wt. %, 23-60° C.): Homogeneous |
| Yes | – | 0.7% wt. % | CCCCCCCCCCCC(=O)OCC(O)CO (stereo not drawn) [Glyceryl monolaurate] | Final State (CHG 20 wt. %, 75° C.): Homogeneous |
| Yes | – | 0.2% wt. % | CCCCCCCCCCCCCCCCCC(=O)OCC(O)CO (stereo not drawn) [Glyceryl monostearate] | Final State (CHG 10 wt. %, 80° C.): Homogeneous |
| No | Inhomogeneous | – | Trigyceryl diisostearate | Final State (CHG 1 wt. %, 23-60° C.): Inhomogeneous |
